Measurements from PubChem BioAssay (NCI).
Converted amounts (≈) assume the structure as drawn. “And” between values parts separate entries of the source, which are not always exact repeats. Identical values can stand only once.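 Cultured in 96-well plates, cells were exposed to test compound for 48 hours across five concentrations. Abbreviation: GI50, concentration required for 50% inhibition of growth. The concentration for full growth arrest is given as TGI.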 The source made the active and inactive calls. No stated cut-off is given here; in the data, active means GI50 below about 0.43 µM; inactive means the rest.

Key:
Test in all cases: growth of human tumour cells (NCI), 48 h
DMS 114 small cell lung = system: DMS 114 small cell lung
DMS 273 small cell lung = system: DMS 273 small cell lung
HOP-18 NSCLC = system: HOP-18 NSCLC
KM20L2 colon = system: KM20L2 colon
RXF-631 renal = system: RXF-631 renal
SNB-78 CNS = system: SNB-78 CNS
M19-MEL melanoma = system: M19-MEL melanoma
MDA-MB-435 = system: MDA-MB-435
MDA-N = system: MDA-N

SMILES | TGI (DMS 114 small cell lung) | TGI (DMS 273 small cell lung) | TGI (HOP-18 NSCLC) [µM] | TGI (KM20L2 colon) [µM] | TGI (RXF-631 renal) | TGI (SNB-78 CNS) | TGI (M19-MEL melanoma) | GI50 (DMS 114 small cell lung) | GI50 (DMS 273 small cell lung) | GI50 (HOP-18 NSCLC) [µM] | outcome (HOP-18 NSCLC) | outcome (KM20L2 colon) | GI50 (M19-MEL melanoma) [µg/mL] | TGI (MDA-MB-435) [µM] | TGI (MDA-N) [µM] | GI50 (SNB-78 CNS) | GI50 (KM20L2 colon)
CCCCCCCCCCCCCCCCCC(=O)OCC(CN(C)CCN(C)C)OC(=O)CCCCCCCCCCCCCCCCC (stereo unspecified) | > 100 µM | > 100 µM | 89 | > 100 | > 100 µM | > 100 µM |  |  |  |  |  |  |  |  |  |  | 
COC(=O)C1CC(C(=O)OC)c2nc3cc(C)ccc3nc21 (stereo unspecified) | > 100 µM | > 100 µM | > 100 | > 100 | > 100 µM | > 100 µM | > 100 µM |  |  |  |  |  |  |  |  |  | 
COC(=O)C1=C(C)N(NC(N)=O)C2(N)N(NC(N)=O)C(C)=C(C(=O)OC)C12C(=O)OC (stereo unspecified) | > 100 µM | > 100 µM | > 100 | > 100 | > 100 µM | > 100 µM | > 100 µM |  |  |  |  |  |  |  |  |  | 
COc1c(O)c2c(c3cc(C(=O)N4CCc5c4c(O)c(OC)c4[nH]c(C(=O)N6CC7CC78C6=CC(=O)c6[nH]cc(C)c68)cc54)[nH]c13)CCN2C(N)=O (stereo unspecified) | 15.1 nM and 0.0121 µg/mL | 7.18 nM and 0.0106 µg/mL | 0.0856 | 0.0181 |  | 0.0534 µg/mL | 14.8 nM and 0.041 µg/mL | 0.00276 µg/mL | 0.00198 µg/mL | 0.0126 | inactive | inactive | 0.0165 (≈ 0.0235 µM) | 0.783 | 22.3 | 0.0117 µg/mL | 
COC(=O)C(CCS(=O)(=O)CC(=O)C(=O)Nc1cccc(C(C)=O)c1)C(=O)OC | > 55.2 µM | > 100 µM | > 100 | > 100 | > 100 µM | > 100 µM | > 100 µM |  |  |  |  |  |  |  |  |  | 
Cc1cccc(C(C)(C)C)c1NC(=O)C(=O)C(C(=O)/C=C\c1ccccc1)C1OC(=O)c2ccccc21 (stereo unspecified) | > 100 µM |  | > 100 | > 100 | > 100 µM | > 100 µM | > 100 µM |  |  |  |  |  |  |  |  |  | 
CC(O)/C=C/C(CCC(C)CO)C(C)C (stereo unspecified) | > 100 µM | > 100 µM |  |  | > 100 µM | > 100 µM | > 100 µM |  |  |  |  |  |  |  |  |  | 
N#CC(C(=O)/C(=N/N)C(C#N)c1ccc(Cl)cc1)c1ccc(Cl)cc1 (stereo unspecified) | > 100 µM |  | > 100 | > 100 | > 100 µM | > 100 µM | > 100 µM |  |  |  |  |  |  |  |  |  | 
CC(=O)OC1C(=O)C(O)C(C)OC1O[C@@H]1C[C@@]2(C)[C@@H]3CC=C4[C@@H](C[C@H](O)C(=O)C4(C)C)[C@]3(C)C(=O)C[C@]2(C)[C@H]1[C@@](C)(O)C(=O)/C=C/C(C)(C)O (stereo partly specified) |  |  | 4.9 | 8.3 | 7.85 µM |  | > 10 µM |  | 0.0452 µM |  |  |  |  |  |  | 0.0626 µM | 
CCCN(CCCCC(NC(C)=O)C(=O)NCc1ccccc1)C(=O)NCCCl (stereo unspecified) | > 100 µM | > 100 µM | > 100 | > 100 | > 100 µM |  | > 100 µM |  |  |  |  |  |  |  |  |  | 
O=C(/C=C/c1ccc(OCC(=O)N2CCN(c3ccccc3)CC2)cc1)c1ccc(Cl)cc1 | > 100 µM | > 100 µM | > 100 | > 100 | > 100 µM | 82.8 µM | > 100 µM |  |  |  |  |  |  | > 100 | > 100 |  | 
CC1OC(n2ncc(=O)[nH]c2=O)C=CC1=O (stereo unspecified) |  |  |  | > 100 | 32.5 µM and 43.5 µM | 86.8 µM and > 100 µM | > 100 µM |  |  |  |  |  |  |  |  |  | > 100 µM and 40.7 µM
COc1ccc2[nH]c(-c3ccccn3)cc(=O)c2c1 | 71.4 µM |  | > 100 | > 100 | > 100 µM | > 100 µM | > 100 µM | 22.6 µM |  |  |  |  |  |  |  |  | 35.1 µM
O=C1NC(=S)NC(=O)C1=Cc1cc2c(cc1[N+](=O)[O-])OCO2 | 87.3 µM | > 100 µM | > 100 | > 100 | > 100 µM | > 100 µM | > 100 µM |  |  |  |  |  |  |  |  |  | 
Cc1cccc(-c2nc3c(C(=O)NCCN(C)C)cccc3[nH]2)c1 | 2.51 µM | 1.59 µM | 4.85 |  | 2.16 µM | 14.6 µM | 3.03 µM |  |  |  |  |  |  |  |  |  | 
C=C1[C@@H](C)[C@H]2[C@H](Cc3ccccc3)NC(=O)[C@]23OC(=O)/C=C/[C@H](O)CCC[C@@H](C)C/C=C/[C@H]3[C@@H]1O | > 100 µM | > 97 µM | 3.03 | > 100 |  | 15.2 µM | > 100 µM |  |  |  |  |  |  |  | > 100 |  | 
Cc1ccccc1-c1c(N)nc(NC#N)nc1C(=O)Nc1ccccc1 | > 100 µM | > 100 µM | > 100 | > 100 | > 100 µM | > 100 µM | > 100 µM |  |  |  |  |  |  |  |  |  | 
CCN1C2=NC(=O)N(C)C(=O)C2(Cl)C(C(SC)S(=O)(=O)c2ccc(C)cc2)c2ccccc21 (stereo unspecified) | > 100 µM | > 100 µM |  | > 100 | 51.2 µM | 58.3 µM | 61.5 µM |  |  |  |  |  |  |  |  |  | 
